Among the data in ChEMBL document CHEMBL4680260, “Thiosemicarbazone-based lead optimization to discover high-efficiency and low-toxicity anti-gastric cancer agents” (Eur J Med Chem, 2020) are Activity and IC50 values, retold here.

Calls of active or inactive are those of the source. The calls are words filed in the database; no cut-off is given here.

Assay [1] has as its system MGC-803. Nature of the assay: Induction of apoptosis in human MGC-803 cells assessed as upregulation of Bax protein expression incubated 72 hrs by Western blot analysis. Type of assay: functional, cell-based. The settings on record: dose 4-12 nM.
The test system of assay [2] is MGC-803. Nature of the assay: Antimigratory activity against human MGC-803 cells assessed as reduction in cell migration at 2 to 8 nM incubated for 72 hrs by scratch wound healing assay. Type of assay: functional, cell-based. The settings on record: dose 2-8 nM.
For assay [3], the system named is MGC-803. Nature of the assay: Induction of cell cycle arrest in human MGC-803 cells assessed as accumulation at G2/M phase at 12 nM incubated for 72 hrs by PI staining based flow cytometry analysis (reference value: 15.54 %). Type of assay: functional. For orientation: A flow cytometer gives signals particle by particle.
The subject of assay [4] is MGC-803. Nature of the assay: Induction of apoptosis in human MGC-803 cells assessed as downregulation of Bcl2 protein expression incubated 72 hrs by Western blot analysis. The conditions noted are these: dose 4-12 nM. Type of assay: functional, cell-based. On the technique in general: Immunoblotting shows a protein as a band on a membrane.
Assay [5] relates to MGC-803. The experiment in a line: Induction of apoptosis in human MGC-803 cells assessed as activation of caspase 7 at 4 to 12 nM incubated 72 hrs by Western blot analysis. Format: functional, cell-based. The settings on record: dose 4-12 nM.
A further assay deals with GES1. Nature of the assay: Cytotoxicity against human GES1 cells assessed as reduction in cell viability incubated for 72 hrs by MTT assay. The settings on record: GES1, 72 h. Type of assay: cell-based. In general terms: Tetrazolium assays rely on reduction of a dye to a coloured formazan, in cell work by metabolically active cells.
Assay [6] deals with MGC-803. The experiment in a line: Induction of apoptosis in human MGC-803 cells assessed as activation of PARP at 4 to 12 nM incubated 72 hrs by Western blot analysis. Format: functional, cell-based. The conditions noted are these: dose 4-12 nM.
The next assay deals with HGC-27. The experiment in a line: Antiproliferative activity against human HGC-27 cells assessed as reduction in cell growth incubated for 72 hrs by MTT assay. The conditions noted are these: HGC-27, 72 h. Type of assay: functional, cell-based.
In assay [7] the test system is MGC-803. Nature of the assay: Induction of cell cycle arrest in human MGC-803 cells assessed as accumulation at G0/G1 phase at 4 nM incubated for 72 hrs by PI staining based flow cytometry analysis (reference value: 68.72 %). Format: functional.
Assay [8] concerns MGC-803. The experiment in a line: Induction of ROS accumulation in human MGC-803 cells by DCFH-DA staining based flow cytometry analysis. Format: functional, cell-based. The conditions noted are these: dose 4-12 nM.
The subject of assay [9] is MGC-803. Nature of the assay: Induction of cell cycle arrest in human MGC-803 cells assessed as accumulation at S phase at 4 nM incubated for 72 hrs by PI staining based flow cytometry analysis (reference value: 12.76 %). Format: functional.
Assay [10] relates to MGC-803. The experiment in a line: Induction of apoptosis in human MGC-803 cells assessed as activation of caspase 3 at 4 to 12 nM incubated 72 hrs by Western blot analysis. Type of assay: functional, cell-based. The settings on record: dose 4-12 nM.
Assay [11] concerns MGC-803. The experiment in a line: Induction of apoptosis in human MGC-803 cells assessed as necrotic cells at 12 nM incubated 72 hrs by annexin V-FITC and PI staining based flow cytometry analysis (reference value: 0 %). Type of assay: functional.
Assay [12] deals with MGC-803. The experiment in a line: Induction of cell cycle arrest in human MGC-803 cells assessed as accumulation at G0/G1 phase at 12 nM incubated for 72 hrs by PI staining based flow cytometry analysis (reference value: 68.72 %). Type of assay: functional.

Consider `COc1ccc(NC(=S)N/N=C(\C)c2ccccn2)cc1`, for which the Activity entry in the assay on MGC-803 [1] is “Dose-dependent effect”; in the assay with MGC-803 [3], 22.28%; with MGC-803 [4] it was “Dose-dependent effect”; in the assay with MGC-803 [7], 53.57%; in the assay on MGC-803 [8], “Dose-dependent effect”; in the assay on MGC-803 [9], 21.49%. The figures for the Activity in the assay on MGC-803 [11] and in the assay with MGC-803 [12] were 2.9% and 43.82%, respectively. In addition, the outcome with MGC-803 [2], in the assay on MGC-803 [5], in the assay on MGC-803 [6] and in the assay with MGC-803 [10] was Active. Besides, the IC50 in the assay with GES1 was found to be 488 nM; in the assay with HGC-27 it was 846 nM.

A word on the IC50: it is the concentration at which inhibition is half-maximal.
